Results on eight compounds are retold here after PubChem BioAssay (NCI).

“And” between values parts separate entries of the source, which are not always exact repeats. Identical values can stand only once.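 Method: 48-hour compound exposure of cells in 96-well plates, five concentrations, linear interpolation of endpoints. The concentration for 50% growth inhibition is given as GI50. TGI is the concentration that stops growth completely.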 Some results are limits rather than exact numbers.

Holding throughout (assay): NCI tumour cell line growth inhibition, 48 h
Assay [1] relates to CAKI-1 renal.
Assay [2] concerns HCC-2998 colon.
The test system of assay [3] is HOP-62 NSCLC.
Assay [4] relates to HOP-92 NSCLC.
In assay [5] the test system is KM12 colon.
The subject of assay [6] is NCI-H23 lung.
Assay [7] deals with RXF 393 renal.
In assay [8] the test system is SK-OV-3 ovarian.
The subject of assay [9] is SN12C renal.
The test system of assay [10] is TK-10 renal.

Regarding `C=CCc1cccc(/C=N/NC(=O)CN2CCN(Cc3ccccc3)CC2)c1O`, the GI50 was 0.841 µM in assay [1]; 2.74 µM in assay [2]; 2.25 µM in [3]; 1.28 µM in assay [4]; 2.56 µM in assay [5]; 3.05 µM in [6]. The GI50 was 0.638 µM in [7], 2.88 µM in assay [8], 4.4 µM in assay [9] and 0.925 µM in assay [10]. In addition, the TGI was 2.12 µM in assay [1]; 17.1 µM in assay [2]; 13.8 µM in [3]; 6.22 µM in assay [4]; 15 µM in assay [5]; 16.5 µM in assay [6]. The TGI in assay [7] worked out at 16.1 µM; in assay [8], 17.8 µM; in [9] it was 18.9 µM; in assay [10] it was 15.1 µM.
Regarding `N#Cc1c(-c2ccc(F)cc2)c(-c2ccc(F)cc2)nn(CCO)c1=O`, the TGI in [1] is > 100 µM; in assay [2], 28.4 µM; in [3] it was > 76.1 µM; in assay [4], > 100 µM; in [5], 4.49 µM; in assay [6] it was > 78.3 µM. Moreover, the TGI in assay [7] was 11.2 µM; in assay [8], > 49.6 µM; in assay [9] it was > 100 µM; in assay [10], > 100 µM.
For the compound `COc1cccc2c1C(=O)c1c(O)c3c(c(O)c1C2=O)CC(O)(/C(C)=N/NC(=O)CCC(=O)N/N=C(\C)C1(O)Cc2c(O)c4c(c(O)c2C(OC2CC(N)C(O)C(C)O2)C1)C(=O)c1c(OC)cccc1C4=O)CC3OC1CC(N)C(O)C(C)O1` (configuration not stated), the GI50 in assay [1] was 0.895 µM; in assay [2] it was 0.508 µM; in assay [3], 0.19 µM; in [4], 0.438 µM; in assay [5] it was 0.755 µM; in assay [6] it was 0.186 µM. In addition, the GI50 was 0.376 µM in assay [7], 0.475 µM in assay [8], 0.234 µM in assay [9] and 0.574 µM in assay [10]. Besides, the TGI in assay [1] is 17.7 µM; in [2], 1.46 µM; in [3] it was 1.57 µM; in assay [5], > 14.5 µM; in assay [6], 1.43 µM; in assay [7], 1.35 µM. In addition, the TGI in assay [8] was 2.4 µM; in assay [9] it was > 50 µM; in assay [10], 6.69 µM.
As for `COc1cc(-c2nn(-c3cccc(NC(=O)Nc4ccc(Cl)c(Cl)c4)c3)cc2-c2ccncc2)ccc1Cl`, the GI50 is 1.12 µM in assay [1]; 1.56 µM in assay [2]; 1.44 µM in assay [3]; 0.151 µM in [4]; 0.811 µM in assay [5]; 1.41 µM in assay [6]. For the same compound, the GI50 in assay [7] is 0.859 µM; in assay [8], 1.93 µM; in assay [9] it was 1.47 µM; in assay [10], 1.43 µM. The TGI in assay [1] worked out at 3.7 µM; in assay [2], 6.2 µM; in assay [3], 4.9 µM; in assay [4], 1.47 µM; in assay [5], 2.77 µM; in [6], 5.19 µM. For the same compound, the TGI in [7] was 2.44 µM; in assay [8], > 50 µM; in assay [9], > 50 µM; in [10], 40.9 µM.
Turning to `N#C/C=C(\c1ccc([N+](=O)[O-])cc1)n1nnc2cc(Cl)c(Cl)cc21`, the GI50 in assay [1] is 1.37 µM; in assay [2] it was 1.77 µM; in assay [3], 1.99 µM; in assay [4], 1.78 µM; in assay [5], 2.62 µM; in [6] it was 2.28 µM. Moreover, the GI50 in [7] is 1.82 µM; in assay [8], 5.1 µM; in assay [9], 2.08 µM; in assay [10], 2.6 µM. Further, the TGI in [1] was 2.91 µM; in assay [2] it was 3.33 µM; in [3], 5.04 µM; in assay [4], 4.28 µM; in assay [5], 11.3 µM; in assay [6], 6.68 µM. Besides, the TGI in assay [7] came out at 3.77 µM; in assay [8], 18.5 µM; in assay [9], 5.4 µM; in assay [10] it was 4.16 µM.
For `O=C(c1ccc(F)c(F)c1Nc1ccc(I)cc1F)N1CC(O)([C@@H]2CCCCN2)C1`, the GI50 is 2.36 µM in assay [1]; < 0.015 µM and 0.0194 µM in assay [2]; 0.349 µM and 0.067 µM in assay [3]; 0.0207 µM and 0.0577 µM in assay [4]; < 0.0376 µM and 0.28 µM in [5]; < 0.0436 µM and 0.129 µM in [6]. The GI50 in [7] is 0.743 µM and 0.396 µM; in assay [8] it was 5.46 µM and 3.26 µM; in [9], 2.03 µM and 1.14 µM; in [10], 0.271 µM. In addition, the TGI in [1] was 17.9 µM and > 10 µM; in assay [2] it was 0.86 µM and 0.952 µM; in assay [3], 16.9 µM and > 10 µM; in [4], 0.239 µM and 0.65 µM; in assay [5], 13.2 µM and > 10 µM; in assay [6], 10 µM and > 10 µM. Also, the TGI in [7] was 7.17 µM and > 6.97 µM; in assay [8], 20.6 µM and > 10 µM; in assay [9], 18.7 µM and > 10 µM; in assay [10] it was 14.8 µM and > 10 µM.
On to `N=c1ccn2c(n1)OC1C(O)C(CO)OC12` (configuration not stated), for which the GI50 in [1] is 0.394 µM; in assay [2] it was 0.0303 µM; in assay [3], 0.326 µM; in assay [4], 8.2 µM and 19.9 µM; in assay [5] it was 147 µM and > 40.9 µM; in [6], 0.345 µM. In addition, the GI50 in [7] was > 25.1 µM; in [8], 5.43 µM; in [9], 3.13 µM. Moreover, the TGI is 260 µM and > 100 µM in assay [1]; 130 µM in [3]; > 811 µM in assay [4]; > 806 µM in [5]; 161 µM and > 100 µM in assay [6]; > 1000 µM in [7]. Moreover, the results for the TGI in assay [8], in assay [9] and in [10] were > 696 µM, > 621 µM and > 1000 µM, respectively.
For `C=CC(=O)N1CCC(C2CCNc3c(C(N)=O)c(-c4ccc(Oc5ccccc5)cc4)nn32)CC1` (configuration not stated), the GI50 is 4.51 µM in assay [1]; 14.8 µM in assay [2]; 19.5 µM in [3]; 2.47 µM in [4]; 22.9 µM in assay [5]; 16.5 µM in assay [6]. Also, the GI50 in assay [7] was 9.22 µM; in [8], 0.572 µM; in assay [9] it was 13.4 µM; in [10] it was 1.29 µM. The TGI in assay [1] worked out at 71 µM; in [2], 28.6 µM; in assay [3], 67.7 µM; in assay [4], 15.7 µM; in [5], 67 µM; in assay [6], 39.9 µM. Also, the TGI was 26.6 µM in assay [7], 5.33 µM in assay [8], > 100 µM in assay [9] and 11.6 µM in assay [10].
